Assay results from patent US20080254986A1, “Use of piperonyl butoxide to protect plants” (priority 2007, published 2008).

Experiments:
Format in all cases: in vivo
Pansy = experiment: Marketability of Pansy after sprays
Procedure: (§1) Ornamental Plants were purchased from local greenhouse retail outlets and allowed to equilibrate to greenhouse conditions for a minimum of 48 hours before experiments were performed.
(§2) To quantify resistance of plants to wilting, a wilt index was developed. The wilt index uses numerical values of 1-4 (1=no wilt, 4=completely wilted and loss of turgor) to express wilt status. A wilt index was determined for each individual plant assessed daily. When the wilt index was equal to or exceeded 2.5, the plant was considered not salable, and the last day prior to that was considered its last marketable day
To determine if the ABA, PBO, or the combination of ABA and PBO is effective at increasing marketable life of other ornamental plants, Pansy plants were used. All applications were made by spray to fully hydrated plants. Solutions were applied as soon as possible after mixing. All spray applications contained Tween 20 at 0.05% (v/v). Plants were held in a greenhouse without further irrigation.

cotton [1] = experiment: Stomatal conductance of cotton plants after spray application
Procedure: Cotton was planted and grown at 25° C. under a 16:8 photoperiod for 14 days. After two weeks, plants were moved to the greenhouse (25±2° C., 16:8 photoperiod) for an additional three weeks before treatment.
[…] Transpiration rate of each treatment was calculated as the percentage of that of control at each day to eliminate day-to-day variation caused by changes of environmental condition such as light intensity and temperature.
In cotton, ABA, PBO and the combination were applied to evaluate the effect on stomatol conductance. A decrease in stomatal aperture, reflected in the conductance measures, is an immediate and direct effect of applied ABA (Finkelstein and Rock, 2002).

Impatiens plants [2] = experiment: Marketability (days marketable) of Impatiens plants after sprays
Procedure: as §1, §2
When the wilt incidence was less than 2.5, the treated plants were considered saleable. The duration of salability was determined for individual plants and the values averaged (Table 4).

Impatiens plants [3] = experiment: Marketability of Impatiens plants, ABA drench and PBO foliar spray
Procedure: as §1, §2
To better determine the effectiveness of PBO on ABA effectiveness, a spatial separation in application methodology was used. That is, water or ABA were drench applied at 10% of the pot volume, followed by a spray application to the foliage of Tween 20 (0.05%) in water, either alone, or in combination with 1000 ppm PBO.
In Table 6, the rate of ABA in the drench application is varied in order to determine the effect of PBO sprays on ABA rate.

cotton [4] = experiment: Stomatal conductance of cotton plants after drench application; conditions: for Reduction of stomatal conductance: drench 50 ppm ABA
Procedure: Cotton was planted and grown at 25° C. under a 16:8 photoperiod for 14 days. After two weeks, plants were moved to the greenhouse (25±2° C., 16:8 photoperiod) for an additional three weeks before treatment. […] Transpiration rate of each treatment was calculated as the percentage of that of control at each day to eliminate day-to-day variation caused by changes of environmental condition such as light intensity and temperature. In cotton, ABA, PBO and the combination were applied to evaluate the effect on stomatol conductance. A decrease in stomatal aperture, reflected in the conductance measures, is an immediate and direct effect of applied ABA (Finkelstein and Rock, 2002).

Viola (Violet) = experiment: Marketability of Viola (Violet) after sprays
Procedure: as §1, §2
To determine if the combination of ABA and PBO is effective at increasing marketable life of other ornamental plants, Viola plants (Violet) were used. All applications were made by spray to fully hydrated plants. Spray solutions were applied as soon as possible after mixing. All spray applications contained Tween 20 at 0.05% (v/v).

Impatiens plants [5] = experiment: Wilt index of Impatiens plants after spray application
Procedure: as §1, §2
In the ornamental plant Impatiens, spray applications were made to evaluate the effects of ABA, PBO or the combination to increase the number of days until the plants wilted. Using a wilt index of 1-4 (1=no wilt, 4=completely wilted and loss of turgor), plants were evaluated following spray application.

[6] = spray 50 ppm, 0 hours after application
[7] = spray 50 ppm, 5 hours after application
[8] = spray 50 ppm, 24 hours after application
[9] = spray 50 ppm, 48 hours after application
[10] = spray 50 ppm, 72 hours after application
[11] = spray 50 ppm, 96 hours after application
[12] = drench 50 ppm, 0 hours after application
[13] = drench 50 ppm, 5 hours after application
[14] = drench 50 ppm, 24 hours after application
[15] = drench 50 ppm, 48 hours after application
[16] = drench 50 ppm, 72 hours after application
[17] = drench 50 ppm, 96 hours after application
[18] = spray PBO 1000 ppm + Tween 20 0.05%

Compound: S-(+)-abscisic acid [ABA]
- Days Marketable (Wilt index less than 2.5) (Pansy; spray ABA 7.5 mg + Tween 20 0.05%): 7.6 days
- Decrease in stomatal conductance (cotton [1]; ABA spray, 5 hours after spray application): 58.9%
- Percent Conductance (stomatal conductance, control = 100%) (cotton [1]; [6]): 101.1%
- Percent Conductance (stomatal conductance, control = 100%) (cotton [1]; [7]): 41.1%
- Percent Conductance (stomatal conductance, control = 100%) (cotton [1]; [8]): 86.2%
- Percent Conductance (stomatal conductance, control = 100%) (cotton [1]; [9]): 91.9%
- Percent Conductance (stomatal conductance, control = 100%) (cotton [1]; [10]): 102.0%
- Percent Conductance (stomatal conductance, control = 100%) (cotton [1]; [11]): 100.6%
- Increase in shelf life without watering (Impatiens plants [2]; ABA spray 200 ppm versus control spray): almost two day increase
- Days Marketable (Wilt index less than 2.5) (Impatiens plants [2]; spray ABA 200 ppm + Tween 20 0.05%): 7.5 days
- Days Marketable (Wilt index less than 2.5) (Impatiens plants [3]; Table 5, drench ABA 200 ppm, spray Tween 20 0.05%): 7.69 days
- Days Marketable (Wilt index less than 2.5) (Impatiens plants [3]; Table 6, drench ABA 50 ppm, spray Tween 20 0.05%): 6.5 days
- Days Marketable (Wilt index less than 2.5) (Impatiens plants [3]; Table 6, drench ABA 200 ppm, spray Tween 20 0.05%): 8.1 days
- Reduction of stomatal conductance (cotton [4]; 5 hours post drench): 44%
- Reduction of stomatal conductance (cotton [4]; 24 hours post drench): 22.5%
- Percent Conductance (stomatal conductance, control = 100%) (cotton [4]; [12]): 100.3%
- Percent Conductance (stomatal conductance, control = 100%) (cotton [4]; [13]): 56.0%
- Percent Conductance (stomatal conductance, control = 100%) (cotton [4]; [14]): 77.5%
- Percent Conductance (stomatal conductance, control = 100%) (cotton [4]; [15]): 85.8%
- Percent Conductance (stomatal conductance, control = 100%) (cotton [4]; [16]): 83.9%
- Percent Conductance (stomatal conductance, control = 100%) (cotton [4]; [17]): 104.3%
- Days Marketable (Wilt index less than 2.5) (Viola (Violet); spray ABA 100 ppm + Tween 20 0.05%): 8.0 days
- Wilt Index (1 = no wilt; 4 = plants wilted, complete loss of turgor) (Impatiens plants [5]; spray ABA 200 ppm + Tween 20 0.05%, 0 days after spray): 1
- Wilt Index (1 = no wilt; 4 = plants wilted, complete loss of turgor) (Impatiens plants [5]; spray ABA 200 ppm + Tween 20 0.05%, 4 days after spray): 1.00
- Wilt Index (1 = no wilt; 4 = plants wilted, complete loss of turgor) (Impatiens plants [5]; spray ABA 200 ppm + Tween 20 0.05%, 5 days after spray): 1.27
- Wilt Index (1 = no wilt; 4 = plants wilted, complete loss of turgor) (Impatiens plants [5]; spray ABA 200 ppm + Tween 20 0.05%, 6 days after spray): 1.66
- Wilt Index (1 = no wilt; 4 = plants wilted, complete loss of turgor) (Impatiens plants [5]; spray ABA 200 ppm + Tween 20 0.05%, 7 days after spray): 2.31

Compound: CCCCOCCOCCOCc1cc2c(cc1CCC)OCO2 [PBO, piperonyl butoxide]
- Days Marketable (Wilt index less than 2.5) (Pansy; spray PBO 1.5 mg + Tween 20 0.05%): 5.8 days
- Increase of the effect of ABA on stomatal conductance by addition of PBO (cotton [1]; PBO 500 ppm added to ABA spray, 5 hours): 27%
- Percent Conductance (stomatal conductance, control = 100%) (cotton [1]; [6]): 101.8%
- Percent Conductance (stomatal conductance, control = 100%) (cotton [1]; [7]): 89.6%
- Percent Conductance (stomatal conductance, control = 100%) (cotton [1]; [8]): 100.7%
- Percent Conductance (stomatal conductance, control = 100%) (cotton [1]; [9]): 100.2%
- Percent Conductance (stomatal conductance, control = 100%) (cotton [1]; [10]): 90.2%
- Percent Conductance (stomatal conductance, control = 100%) (cotton [1]; [11]): 96.2%
- Percent Conductance (stomatal conductance, control = 100%) (cotton [1]; spray 500 ppm, 0 hours after application): 103.0%
- Percent Conductance (stomatal conductance, control = 100%) (cotton [1]; spray 500 ppm, 5 hours after application): 67.2%
- Percent Conductance (stomatal conductance, control = 100%) (cotton [1]; spray 500 ppm, 24 hours after application): 68.5%
- Percent Conductance (stomatal conductance, control = 100%) (cotton [1]; spray 500 ppm, 48 hours after application): 81.5%
- Percent Conductance (stomatal conductance, control = 100%) (cotton [1]; spray 500 ppm, 72 hours after application): 84.6%
- Percent Conductance (stomatal conductance, control = 100%) (cotton [1]; spray 500 ppm, 96 hours after application): 95.2%
- Days Marketable (Wilt index less than 2.5) (Impatiens plants [2]; [18]): 6.6 days
- Days Marketable (Wilt index less than 2.5) (Impatiens plants [3]; Table 5, drench water, spray PBO 1000 ppm + Tween 20 0.05%): 6.69 days
- Days Marketable (Wilt index less than 2.5) (Impatiens plants [3]; Table 6, drench water, spray PBO 1000 ppm + Tween 20 0.05%): 6.5 days
- Percent Conductance (stomatal conductance, control = 100%) (cotton [4]; [12]): 100.8%
- Percent Conductance (stomatal conductance, control = 100%) (cotton [4]; [13]): 84.0%
- Percent Conductance (stomatal conductance, control = 100%) (cotton [4]; [14]): 95.1%
- Percent Conductance (stomatal conductance, control = 100%) (cotton [4]; [15]): 97.7%
- Percent Conductance (stomatal conductance, control = 100%) (cotton [4]; [16]): 91.6%
- Percent Conductance (stomatal conductance, control = 100%) (cotton [4]; [17]): 101.5%
- Percent Conductance (stomatal conductance, control = 100%) (cotton [4]; drench 500 ppm, 0 hours after application): 100.4%
- Percent Conductance (stomatal conductance, control = 100%) (cotton [4]; drench 500 ppm, 5 hours after application): 86.8%
- Percent Conductance (stomatal conductance, control = 100%) (cotton [4]; drench 500 ppm, 24 hours after application): 89.8%
- Percent Conductance (stomatal conductance, control = 100%) (cotton [4]; drench 500 ppm, 48 hours after application): 96.9%
- Percent Conductance (stomatal conductance, control = 100%) (cotton [4]; drench 500 ppm, 72 hours after application): 100.2%
- Percent Conductance (stomatal conductance, control = 100%) (cotton [4]; drench 500 ppm, 96 hours after application): 93.1%
- Days Marketable (Wilt index less than 2.5) (Viola (Violet); [18]): 5.9 days
- Wilt Index (1 = no wilt; 4 = plants wilted, complete loss of turgor) (Impatiens plants [5]; spray PBO 1000 ppm + Tween 20 0.05%, 0 days after spray): 1
- Wilt Index (1 = no wilt; 4 = plants wilted, complete loss of turgor) (Impatiens plants [5]; spray PBO 1000 ppm + Tween 20 0.05%, 4 days after spray): 1.13
- Wilt Index (1 = no wilt; 4 = plants wilted, complete loss of turgor) (Impatiens plants [5]; spray PBO 1000 ppm + Tween 20 0.05%, 5 days after spray): 1.34
- Wilt Index (1 = no wilt; 4 = plants wilted, complete loss of turgor) (Impatiens plants [5]; spray PBO 1000 ppm + Tween 20 0.05%, 6 days after spray): 1.83
- Wilt Index (1 = no wilt; 4 = plants wilted, complete loss of turgor) (Impatiens plants [5]; spray PBO 1000 ppm + Tween 20 0.05%, 7 days after spray): 2.25
